One data set has as its system S. aureus S1 (MRSA). It is filed as cell-based, Staphylococcus aureus. The protocol:
(§1) S1 was isolated from the blood of a patient and S2 was isolated from the sputum of a neonate. After isolation and identification, S. aureus strains were assessed for their susceptibility to various antibiotics, using the agar disc diffusion method. S1 was found Methicillin resistant (MRSA) and is also resistant to Amoxicillin, Oxacillin, Amikacin, Tobramycin, Fluoroquinolones, Erythromycin and Clindamycin. However, it was susceptible to Gentamicin, Synercid, Co-trimoxazole, Rifampicin, Fusidic acid, Vancomycin, Teicoplanin and Linezolid.
(§2) Different S. aureus strains described above were first pre-cultured aerobically at 37°C for 20 h in a Mueller-Hinton-Broth (MHB) medium, pH 7.3 (Difco Laboratories, Detroit, MI). Bacteria were suspended at absorbance of 0.001 at 620 nm in the MHB medium. […] Ten µl final volumes (10–200 µg/mL) of synthetic peptides (LL-37, bCAT, hCAT and bCTL) were incubated in microtitration plates with 90 µl of a mid-logarithmic phase culture of bacteria, with a starting absorbance of 0.001 at 620 nm. In the initial inoculi, bacteria were quantified by the agar plate spreading method which was 5×10^5 colony forming units (CFU)/mL. Tetracycline (10 mg/L) and Cefotaxime (0.1 mg/L) were used as positive controls. Microbial growth was assessed by the increase of absorbance after 24 h incubation at 37°C., [29] The A620 nm value of control cultures growing in the absence of peptide and antibiotics was defined as 100% growth. A620 nm zero with the antibiotics (Tetracycline and Cefotaxime) was taken as 100% inhibition. Absence of bacterial growth was verified by agar plate spreading. Each assay was performed in triplicates.
(§3) The MIC values (µg/mL) are reported as means of three independent experiments. To determine significance, between different peptides (rows) and bacterial strains (columns), one way ANOVA was used. Overall significance and correlation was evaluated by 4×4 factorial ANOVA for independent samples. Significance was accepted at p≤0.05.

The subject of a further data set is S. aureus S2 (MSSA). It is filed as cell-based, Staphylococcus aureus. Here is the method:
as §1, §2, §3

For data set [1], the system named is S. aureus metallo-protease aureolysin. Particulars: cited from earlier work. The text has this:
Staphylococcus aureus is the most frequently isolated pathogen in Gram-positive sepsis, often involved in blood clotting disorders and destruction of endocardial tissue. S. aureus has developed several mechanisms to avoid immune response including resistance to AMPs, [13] impairment of phagocyte recruitment, [14] escape from neutrophil extracellular traps, [15] interference with complement, [16] neutrophil lysis, resistance to oxidative burst and non-specific binding and degradation of immunoglobulins. The AMPs evasion mechanisms deployed by S. aureus include prote ...

For another data set, the system named is S. aureus ATCC25923. It is filed as cell-based, Staphylococcus aureus. Here is the method: as §2, §3
For a further data set, the system named is S. aureus ATCC49775. It is filed as cell-based, Staphylococcus aureus. The protocol:
as §2, §3

For another data set, the system named is S. aureus. Kind of data set: Antibacterial activity against S. aureus, (strains together or not specified). It is filed as cell-based, Staphylococcus aureus. The conditions noted are these: across ATCC49775, ATCC25923, S1, S2. The protocol:
as §2

The next data set deals with human erythrocytes. The conditions noted are these: cited from earlier work. An excerpt: Due to continuous resistance development by S. aureus, the interest for natural AMPs is increasing because some of them display potent antibacterial activity. However, secondary reactions such as hemolytic activity, [36] limit their use as systemic anti-infective drugs. Until recently, no such reaction was reported for the antimicrobial Cgs-derived peptides in the literature. Several CgA-derived peptides were previously characterized to display antimicrobial properties, [9] however, data concerning killing of S. aureus is not reported. CAT was previously reported, to be active against diff ...

Data set [2] deals with staphylococcal proteases released into bacterial supernatants. Particulars: 37°C, 24 h, RP-HPLC.
Procedure: S. aureus strains were precultured and plated on the agar plates and cultivated for 24 h at 37°C. After incubation, one colony per isolate was transferred to 10 mL of the MHB medium and incubated at 37°C for about 30 h to late stationary growth phase. After incubation, cultures were centrifuged at 10,000×g for 15 min and supernatants were filtered using a 0.22 µM Millex®-GV (Millipore, Carrigtwohill, Ireland) to eliminate bacteria. The supernatants were stored at −20°C until further use. In order to check sterility, 1 mL of each supernatant was incubated at 37°C for 48 h. Absence of a colony was interpreted as lack of viable bacteria.
Triplicate wells were treated for each concentration of peptide. In parallel, several controls were performed: with and without peptides in MHB medium.
For which, protease inhibitor cocktail (complete protease inhibitors except metalloproteases) (Roche Diagnostic GmbH, Mannheim, Germany) supplemented with 100 µM of 1–10 phenanthroline (metalloprotease inhibitor) (Sigma Aldrich GmbH, Steinheim, Germany) was added to bacterial supernatants before the addition of synthetic peptides. The whole suspension was incubated at 37°C for 24 h prior to being analyzed by RP-HPLC.
The synthetic peptides treated with bacterial supernatants and different controls including culture medium, bacterial supernatants, and synthetic peptides were separated using a Dionex HPLC system (Ultimate 3000; Sunnyvale, CA USA) on a Nucleosil reverse-phase 300–5C18-column (4×250 mm; particle size, 5 µm; porosity, 300 Å) (Macherey Nagel Hoerdt, France). Absorbance was monitored at 214 nm, and the solvent system consisted of 0.1% (v/v) TFA in water (solvent A) and 0.09% (v/v) TFA in 70% (v/v) acetonitrile-water (solvent B). Elution was performed at a flow rate of 700 µL/min, with the gradient as indicated on chromatograms. Fractions were collected with one min time interval. They were subsequently concentrated by evaporation by using a speed-vac, however not allowing them to dry completely.
The N-terminal sequence of purified peptides was determined by automatic Edman degradation analysis on a Procise microsequencer (Applied Biosystems, Courtaboeuf, France). Samples purified by HPLC were loaded on polybrene-treated glass-fiber filters. Phenylthiohydantoin-amino acids (Pth-Xaa) were identified by chromatography on a C18 column (PTH C-18, 2.1 mm×200 mm).
Mass determination was carried out on a Brucker BIFLEX™ Matrix-Assisted Laser Desorption Ionization – Time-Of-Flight mass spectrometer (MALDI-TOF) (equipped with the high resolution optics (SCOUT™) with X–Y multi-sample probe, a gridless reflector and with the HIMAS™ linear detector). With a maximum accelerating potential of 30 kV, the system can be operated either in linear or the reflective mode. Ionization was carried out with a 337-nm beam from a nitrogen laser with a repetition rate of 3 Hz. The output signal from the detector was digitized at a sampling rate of 250 MHz in linear mode and 500 MHz in reflector mode using a 1 GHz digital oscilloscope (Lecroy model). Brucker supplied software hosted in Sun sparcworkstation was used for data processing and the instrumental control. […] These studies were realized using the matrix α-cyano-4-hydroxycinnamic acid, obtained from Sigma, and prepared as a saturated solution in acetone. A total of 1–2 µl of the sample matrix aliquot solution was deposited on the probe and dried by ambient air. A thin layer matrix crystal was obtained after rapid spreading and evaporation. […] A micromolar analyte solution was applied to the matrix and allowed to dry under moderate vacuum. The whole preparation was washed by 1 μl of trifluoroacetic acid (0.5%) aqueous solution. This cleaning procedure helps remove remaining alkaline cations and often leads to an increase in sensitivity.
[3] abbreviates: MIC = 100% growth inhibition, MHB pH 7.3, 5×10^5 CFU/mL, 24 h 37°C, A620 nm, mean of triplicate (n = 3).

≈ marks a conversion by molar mass, not a printed value. Like-named read-outs stand apart in the source and are kept apart here. Where no end group is shown, it is not given here.

Consider `CC[C@H](C)[C@H](NC(=O)[C@H](CCCCN)NC(=O)[C@H](CCC(=O)O)NC(=O)[C@H](CCCCN)NC(=O)[C@H](CO)NC(=O)[C@H](CCCCN)NC(=O)[C@H](CCCNC(=N)N)NC(=O)[C@H](Cc1ccccc1)NC(=O)[C@H](Cc1ccccc1)NC(=O)[C@H](CC(=O)O)NC(=O)CNC(=O)[C@H](CC(C)C)NC(=O)[C@@H](N)CC(C)C)C(=O)NCC(=O)N[C@@H](CCCCN)C(=O)N[C@@H](CCC(=O)O)C(=O)N[C@@H](Cc1ccccc1)C(=O)N[C@@H](CCCCN)C(=O)N[C@@H](CCCNC(=N)N)C(=O)N[C@H](C(=O)N[C@H](C(=O)N[C@@H](CCC(N)=O)C(=O)N[C@@H](CCCNC(=N)N)C(=O)N[C@H](C(=O)N[C@@H](CCCCN)C(=O)N[C@@H](CC(=O)O)C(=O)N[C@@H](Cc1ccccc1)C(=O)N[C@@H](CC(C)C)C(=O)N[C@@H](CCCNC(=N)N)C(=O)N[C@@H](CC(N)=O)C(=O)N[C@@H](CC(C)C)C(=O)N[C@H](C(=O)N1CCC[C@H]1C(=O)N[C@@H](CCCNC(=N)N)C(=O)N[C@H](C(=O)N[C@@H](CCC(=O)O)C(=O)N[C@@H](CO)C(=O)O)[C@@H](C)O)C(C)C)[C@@H](C)CC)C(C)C)[C@@H](C)CC` [LL-37, reference compound], for which the MIC (usually the least concentration at which growth counts as inhibited) stood at 30 µg/mL (≈ 6.68 µM) with S. aureus S1 (MRSA) (setting [3]), 35 µg/mL (≈ 7.79 µM) against S. aureus S2 (MSSA) (setting [3]), 30 µg/mL (≈ 6.68 µM) against S. aureus ATCC25923 (setting [3]) and 30 µg/mL (≈ 6.68 µM) in the data set with S. aureus ATCC49775 (setting [3]). For the same compound, in data set [1], the cleavage by aureolysin result was “cleave and inactivate”.
For the compound RSMRLSFRARGYGFR [bCTL, cateslytin], the MIC in the data set with S. aureus S1 (MRSA) (S1, 24 h, pH 7.3) worked out at 37 µg/mL; against S. aureus S2 (MSSA) (S2, 24 h, pH 7.3), 45 µg/mL; in the data set with S. aureus ATCC25923 (ATCC25923, 24 h, pH 7.3), 40 µg/mL; against S. aureus ATCC49775 (ATCC49775, 24 h, pH 7.3), 37 µg/mL. For the same compound, in the data set with S. aureus, the “MIC value against different strains of S. aureus” value fell in the range of 37 to 45 µg/mL. In addition, the hemolytic activity entry in the data set with human erythrocytes is reported as “not hemolytic”. The “degradation by any of the staphylococcal strains tested (four supernatants)” value in data set [2] (ATCC49775, ATCC25923, S1, S2 supernatants, peptide at MIC concentration) was “not degraded”. Further, the “degradation by four strain supernatants in presence of protease inhibitors” value in data set [2] (protease inhibitor cocktail + 100 µM 1–10 phenanthroline) is “remains unaffected”.

The record behind these values is publication PMC3722296 (PLoS ONE, 2013).
